From ChEMBL document CHEMBL3045322, “Synthesis and herbicidal activity of 2-acylimino-3-phenyl-1,3-thiazolines—A new family of bleaching herbicides—” (J Pestic Sci, 2006)

What was measured:
Ipomoea nil [1] = experiment: Herbicidal activity against Ipomoea nil (Japanese morning glory) in plastic pot assessed as killing at 500 g/ha under greenhouse for 20 days by pre-emergence herbicidal activity tests; assay type: functional
Abutilon theophrasti [2] = experiment: Herbicidal activity against Abutilon theophrasti (velvetleaf) in plastic pot assessed as killing at 500 g/ha under greenhouse for 20 days by preemergence herbicidal activity tests; assay type: functional
Echinochloa frumentacea = experiment: Herbicidal activity against Echinochloa frumentacea (Japanese millet) in plastic pot assessed as killing at 500 g/ha under greenhouse for 20 days by preemergence herbicidal activity tests; assay type: functional
Portulaca oleracea [3] = experiment: Herbicidal activity against Portulaca oleracea in field soil at 125 g/ha measured after 3 days by preemergence herbicidal activity tests; assay type: functional
Ipomoea nil [4] = experiment: Herbicidal activity against Ipomoea nil (Japanese morning glory) in field soil at 62.5 g/ha measured after 3 days by pre-emergence herbicidal activity tests; assay type: functional
Amaranthus viridis [5] = experiment: Herbicidal activity against Amaranthus viridis in field soil at 125 g/ha measured after 3 days by pre-emergence herbicidal activity tests; assay type: functional
Sorghum halepense [6] = experiment: Herbicidal activity against Sorghum halepense (Johnson grass) in field soil at 125 g/ha measured after 3 days by preemergence herbicidal activity tests; assay type: functional
Abutilon theophrasti [7] = experiment: Herbicidal activity against Abutilon theophrasti (velvetleaf) in field soil at 125 g/ha measured after 3 days by preemergence herbicidal activity tests; assay type: functional
Sida spinosa [8] = experiment: Herbicidal activity against Sida spinosa in field soil at 62.5 g/ha measured after 3 days by preemergence herbicidal activity tests; assay type: functional
Gossypium hirsutum [9] = experiment: Phytotoxicity against Gossypium hirsutum (cotton) at 125 g/ha by selectivity assay; assay type: organism-based; conditions: in vivo
Sida spinosa [10] = experiment: Herbicidal activity against Sida spinosa in field soil at 125 g/ha measured after 3 days by preemergence herbicidal activity tests; assay type: functional
Echinochloa crus-galli [11] = experiment: Herbicidal activity against Echinochloa crus-galli (barnyard grass) in field soil at 62.5 g/ha measured after 3 days by preemergence herbicidal activity tests; assay type: functional
Sorghum halepense [12] = experiment: Herbicidal activity against Sorghum halepense (Johnson grass) in field soil at 62.5 g/ha measured after 3 days by preemergence herbicidal activity tests; assay type: functional
Abutilon theophrasti [13] = experiment: Herbicidal activity against Abutilon theophrasti (velvetleaf) in field soil at 62.5 g/ha measured after 3 days by preemergence herbicidal activity tests; assay type: functional
Gossypium hirsutum [14] = experiment: Phytotoxicity against Gossypium hirsutum (cotton) at 62.5 g/ha by selectivity assay; assay type: organism-based; conditions: in vivo
Amaranthus viridis [15] = experiment: Herbicidal activity against Amaranthus viridis in field soil at 62.5 g/ha measured after 3 days by pre-emergence herbicidal activity tests; assay type: functional
Ipomoea nil [16] = experiment: Herbicidal activity against Ipomoea nil (Japanese morning glory) in field soil at 125 g/ha measured after 3 days by pre-emergence herbicidal activity tests; assay type: functional
Eleusine indica [17] = experiment: Herbicidal activity against Eleusine indica in field soil at 125 g/ha measured after 3 days by preemergence herbicidal activity tests; assay type: functional
Portulaca oleracea [18] = experiment: Herbicidal activity against Portulaca oleracea in field soil at 62.5 g/ha measured after 3 days by preemergence herbicidal activity tests; assay type: functional
Eleusine indica [19] = experiment: Herbicidal activity against Eleusine indica in field soil at 62.5 g/ha measured after 3 days by preemergence herbicidal activity tests; assay type: functional
Echinochloa crus-galli [20] = experiment: Herbicidal activity against Echinochloa crus-galli (barnyard grass) in field soil at 125 g/ha measured after 3 days by preemergence herbicidal activity tests; assay type: functional

With `CCOC(=O)/N=c1/sc(CC)cn1-c1cccc(C(F)(F)F)c1` the Activity (Ipomoea nil [1]) was 70%, the Activity (Abutilon theophrasti [2]) was 70% and the Activity (Echinochloa frumentacea) was 70%.
In the case of `Cc1cn(-c2cccc(C(F)(F)F)c2)/c(=N/C(=O)C(F)F)s1`, the Activity (Portulaca oleracea [3]) is reported as 100%, the Activity (Ipomoea nil [4]) is reported as 100% and the Activity (Amaranthus viridis [5]) is reported as 100%. The Activity (Sorghum halepense [6]) was 90%, the Activity (Abutilon theophrasti [7]) was 100% and the Activity (Sida spinosa [8]) was 100%. The Activity (Gossypium hirsutum [9]) was 0%, the Activity (Sida spinosa [10]) was 100% and the Activity (Echinochloa crus-galli [11]) was 90%. For the same molecule, the Activity (Ipomoea nil [1]) was 100%, the Activity (Sorghum halepense [12]) was 90% and the Activity (Abutilon theophrasti [13]) was 100%. It also gave an Activity (Gossypium hirsutum [14]) of 0%, an Activity (Amaranthus viridis [15]) of 100% and an Activity (Ipomoea nil [16]) of 100%. The Activity (Abutilon theophrasti [2]) was 100%, the Activity (Echinochloa frumentacea) was 100% and the Activity (Eleusine indica [17]) was 90%. For the same molecule, the Activity (Portulaca oleracea [18]) was 100%, the Activity (Eleusine indica [19]) was 90% and the Activity (Echinochloa crus-galli [20]) was 100%.
Molecule `Cc1cn(-c2cccc(C(F)(F)F)c2)/c(=N/C(=O)C(F)(F)F)s1` has an Activity (Portulaca oleracea [3]) of 90%, an Activity (Ipomoea nil [4]) of 80% and an Activity (Amaranthus viridis [5]) of 100%. For the same molecule, the Activity (Sorghum halepense [6]) was 90%, the Activity (Abutilon theophrasti [7]) was 100% and the Activity (Sida spinosa [8]) was 90%. For the same molecule, the Activity (Gossypium hirsutum [9]) was 30%, the Activity (Sida spinosa [10]) was 100% and the Activity (Echinochloa crus-galli [11]) was 80%. The Activity (Ipomoea nil [1]) was 100%, the Activity (Sorghum halepense [12]) was 70% and the Activity (Abutilon theophrasti [13]) was 90%. The Activity (Gossypium hirsutum [14]) was 10%, the Activity (Amaranthus viridis [15]) was 90% and the Activity (Ipomoea nil [16]) was 100%. For the same molecule, the Activity (Abutilon theophrasti [2]) was 100%, the Activity (Echinochloa frumentacea) was 100% and the Activity (Eleusine indica [17]) was 90%. The Activity (Portulaca oleracea [18]) was 90%, the Activity (Eleusine indica [19]) was 80% and the Activity (Echinochloa crus-galli [20]) was 100%.
Molecule `Cc1cn(-c2cccc(C(F)(F)F)c2)/c(=N/C(=O)C(F)(F)C(F)(F)F)s1` has an Activity (Ipomoea nil [1]) of 70%, an Activity (Abutilon theophrasti [2]) of 80% and an Activity (Echinochloa frumentacea) of 80%.
`CCOC(=O)/N=c1/scc(C)n1-c1cccc(C(F)(F)F)c1` showed an Activity (Ipomoea nil [1]) of 0%, an Activity (Abutilon theophrasti [2]) of 0% and an Activity (Echinochloa frumentacea) of 0%.
For `CCOC(=O)/N=c1/scc(Cl)n1-c1cccc(C(F)(F)F)c1`, the Activity (Ipomoea nil [1]) was 0%, the Activity (Abutilon theophrasti [2]) was 0% and the Activity (Echinochloa frumentacea) was 0%.
`CCOC(=O)/N=c1/scc(N)n1-c1cccc(C(F)(F)F)c1` was tested, and the Activity (Ipomoea nil [1]) was 10%, the Activity (Abutilon theophrasti [2]) was 0% and the Activity (Echinochloa frumentacea) was 30%.
In the case of `CCOC(=O)/N=c1/sc(C)cn1-c1cccc(C(F)(F)F)c1`, the Activity (Ipomoea nil [1]) is reported as 90%, the Activity (Abutilon theophrasti [2]) is reported as 90% and the Activity (Echinochloa frumentacea) is reported as 90%.
Work on `CCCc1cn(-c2cccc(C(F)(F)F)c2)/c(=N\C(=O)OCC)s1` yielded an Activity (Ipomoea nil [1]) of 40%, an Activity (Abutilon theophrasti [2]) of 0% and an Activity (Echinochloa frumentacea) of 60%.
`CCOC(=O)/N=c1/sc(C(C)C)cn1-c1cccc(C(F)(F)F)c1` gave an Activity (Ipomoea nil [1]) of 10%, an Activity (Abutilon theophrasti [2]) of 0% and an Activity (Echinochloa frumentacea) of 0%.
`CCOC(=O)/N=c1/sc(Cl)cn1-c1cccc(C(F)(F)F)c1` showed an Activity (Ipomoea nil [1]) of 60%, an Activity (Abutilon theophrasti [2]) of 70% and an Activity (Echinochloa frumentacea) of 90%.
`CCOC(=O)/N=c1/sc(Br)cn1-c1cccc(C(F)(F)F)c1` gave an Activity (Ipomoea nil [1]) of 60%, an Activity (Abutilon theophrasti [2]) of 100% and an Activity (Echinochloa frumentacea) of 90%.
`CCOC(=O)/N=c1/sc(I)cn1-c1cccc(C(F)(F)F)c1` gave an Activity (Ipomoea nil [1]) of 90%, an Activity (Abutilon theophrasti [2]) of 60% and an Activity (Echinochloa frumentacea) of 80%.
`CCOC(=O)/N=c1/sc(SC)cn1-c1cccc(C(F)(F)F)c1` showed an Activity (Ipomoea nil [1]) of 50%, an Activity (Abutilon theophrasti [2]) of 40% and an Activity (Echinochloa frumentacea) of 70%.
In the case of `CCOC(=O)/N=c1/sc(C#N)cn1-c1cccc(C(F)(F)F)c1`, the Activity (Ipomoea nil [1]) is reported as 0%, the Activity (Abutilon theophrasti [2]) is reported as 0% and the Activity (Echinochloa frumentacea) is reported as 20%.
`CCOC(=O)/N=c1/sc2c(n1-c1cccc(C(F)(F)F)c1)CCC2` gave an Activity (Ipomoea nil [1]) of 0%, an Activity (Abutilon theophrasti [2]) of 0% and an Activity (Echinochloa frumentacea) of 0%.
Work on `CCOC(=O)/N=c1/sc2c(n1-c1cccc(C(F)(F)F)c1)CCCC2` yielded an Activity (Ipomoea nil [1]) of 0%, an Activity (Abutilon theophrasti [2]) of 0% and an Activity (Echinochloa frumentacea) of 0%.
`CCOC(=O)/N=c1/sc(C)c(Br)n1-c1cccc(C(F)(F)F)c1` was tested, and the Activity (Ipomoea nil [1]) was 40%, the Activity (Abutilon theophrasti [2]) was 0% and the Activity (Echinochloa frumentacea) was 20%.
In the case of `CCOC(=O)/N=c1/sc(Br)c(Br)n1-c1cccc(C(F)(F)F)c1`, the Activity (Ipomoea nil [1]) is reported as 40%, the Activity (Abutilon theophrasti [2]) is reported as 0% and the Activity (Echinochloa frumentacea) is reported as 20%.
Work on `Cc1cn(-c2cccc(C(F)(F)F)c2)c(=N)s1` yielded an Activity (Ipomoea nil [1]) of 0%, an Activity (Abutilon theophrasti [2]) of 0% and an Activity (Echinochloa frumentacea) of 40%.
Molecule `C/N=c1/sc(C)cn1-c1cccc(C(F)(F)F)c1` has an Activity (Ipomoea nil [1]) of 0%, an Activity (Abutilon theophrasti [2]) of 0% and an Activity (Echinochloa frumentacea) of 0%.
Molecule `Cc1cn(-c2cccc(C(F)(F)F)c2)/c(=N/c2ccc(Cl)cc2)s1` has an Activity (Ipomoea nil [1]) of 0%, an Activity (Abutilon theophrasti [2]) of 0% and an Activity (Echinochloa frumentacea) of 0%.
Work on `CSC(=S)/N=c1/sc(C)cn1-c1cccc(C(F)(F)F)c1` yielded an Activity (Ipomoea nil [1]) of 40%, an Activity (Abutilon theophrasti [2]) of 30% and an Activity (Echinochloa frumentacea) of 50%.
For `CC(=O)/N=c1/sc(C)cn1-c1cccc(C(F)(F)F)c1`, the Activity (Ipomoea nil [1]) was 100%, the Activity (Abutilon theophrasti [2]) was 90% and the Activity (Echinochloa frumentacea) was 100%.
Molecule `CC(=S)/N=c1/sc(C)cn1-c1cccc(C(F)(F)F)c1` has an Activity (Ipomoea nil [1]) of 0%, an Activity (Abutilon theophrasti [2]) of 0% and an Activity (Echinochloa frumentacea) of 10%.
`CCNC(=O)/N=c1/sc(C)cn1-c1cccc(C(F)(F)F)c1` showed an Activity (Ipomoea nil [1]) of 40%, an Activity (Abutilon theophrasti [2]) of 40% and an Activity (Echinochloa frumentacea) of 80%.
`CCNC(=S)/N=c1/sc(C)cn1-c1cccc(C(F)(F)F)c1` was tested, and the Activity (Ipomoea nil [1]) was 0%, the Activity (Abutilon theophrasti [2]) was 0% and the Activity (Echinochloa frumentacea) was 20%.
In the case of `Cc1cn(-c2cccc(C(F)(F)F)c2)/c(=N\C(=O)N(C)C)s1`, the Activity (Ipomoea nil [1]) is reported as 20%, the Activity (Abutilon theophrasti [2]) is reported as 30% and the Activity (Echinochloa frumentacea) is reported as 70%.
Work on `Cc1cn(-c2cccc(C(F)(F)F)c2)/c(=N\C(=O)Nc2ccccc2)s1` yielded an Activity (Ipomoea nil [1]) of 40%, an Activity (Abutilon theophrasti [2]) of 60% and an Activity (Echinochloa frumentacea) of 60%.
`Cc1cn(-c2cccc(C(F)(F)F)c2)/c(=N\S(C)(=O)=O)s1` gave an Activity (Ipomoea nil [1]) of 80%, an Activity (Abutilon theophrasti [2]) of 80% and an Activity (Echinochloa frumentacea) of 90%.
For `Cc1cn(-c2cccc(C(F)(F)F)c2)/c(=N/C#N)s1`, the Activity (Ipomoea nil [1]) was 50%, the Activity (Abutilon theophrasti [2]) was 60% and the Activity (Echinochloa frumentacea) was 90%.
With `CCC(=O)/N=c1\sc(C)cn1-c1cccc(C(F)(F)F)c1` the Activity (Ipomoea nil [1]) was 60%, the Activity (Abutilon theophrasti [2]) was 50% and the Activity (Echinochloa frumentacea) was 70%.
`CCCC(=O)/N=c1\sc(C)cn1-c1cccc(C(F)(F)F)c1` showed an Activity (Ipomoea nil [1]) of 40%, an Activity (Abutilon theophrasti [2]) of 20% and an Activity (Echinochloa frumentacea) of 40%.
With `Cc1cn(-c2cccc(C(F)(F)F)c2)/c(=N/C(=O)C(C)C)s1` the Activity (Ipomoea nil [1]) was 40%, the Activity (Abutilon theophrasti [2]) was 60% and the Activity (Echinochloa frumentacea) was 70%.
`Cc1cn(-c2cccc(C(F)(F)F)c2)/c(=N/C(=O)C(C)(C)C)s1` was tested, and the Activity (Ipomoea nil [1]) was 60%, the Activity (Abutilon theophrasti [2]) was 40% and the Activity (Echinochloa frumentacea) was 50%.
Work on `Cc1cn(-c2cccc(C(F)(F)F)c2)/c(=N/C(=O)C2CC2)s1` yielded an Activity (Ipomoea nil [1]) of 60%, an Activity (Abutilon theophrasti [2]) of 40% and an Activity (Echinochloa frumentacea) of 90%.
`Cc1cn(-c2cccc(C(F)(F)F)c2)/c(=N/C(=O)CCl)s1` was tested, and the Activity (Ipomoea nil [1]) was 0%, the Activity (Abutilon theophrasti [2]) was 0% and the Activity (Echinochloa frumentacea) was 20%.
`Cc1cn(-c2cccc(C(F)(F)F)c2)/c(=N/C(=O)C(Cl)Cl)s1` showed an Activity (Ipomoea nil [1]) of 0%, an Activity (Abutilon theophrasti [2]) of 0% and an Activity (Echinochloa frumentacea) of 30%.
With `Cc1cn(-c2cccc(C(F)(F)F)c2)/c(=N/C(=O)CF)s1` the Activity (Ipomoea nil [1]) was 90%, the Activity (Abutilon theophrasti [2]) was 70% and the Activity (Echinochloa frumentacea) was 90%.
For `CCOC(=O)/N=c1/sccn1-c1cccc(C(F)(F)F)c1`, the Activity (Ipomoea nil [1]) was 20%, the Activity (Abutilon theophrasti [2]) was 20% and the Activity (Echinochloa frumentacea) was 50%.
